From US7273848B2, “Apolipoprotein A-I agonists and their use to treat dyslipidemic disorders” (priority 1997, dated 2007)
Non-standard residues stand in square brackets, D forms with d. Residues, ends and D or L forms follow the SMILES beside them. No end group written: not given here. Orn = NCCC[C@H](N)C(=O)O; Aib = CC(C)(N)C(=O)O

Molecular target: T1, LCAT (purified from human plasma) (Homo sapiens, UniProt P04180)
T1 construct: from tissue; host or cells: human plasma
T1 sequence (P04180 25-440): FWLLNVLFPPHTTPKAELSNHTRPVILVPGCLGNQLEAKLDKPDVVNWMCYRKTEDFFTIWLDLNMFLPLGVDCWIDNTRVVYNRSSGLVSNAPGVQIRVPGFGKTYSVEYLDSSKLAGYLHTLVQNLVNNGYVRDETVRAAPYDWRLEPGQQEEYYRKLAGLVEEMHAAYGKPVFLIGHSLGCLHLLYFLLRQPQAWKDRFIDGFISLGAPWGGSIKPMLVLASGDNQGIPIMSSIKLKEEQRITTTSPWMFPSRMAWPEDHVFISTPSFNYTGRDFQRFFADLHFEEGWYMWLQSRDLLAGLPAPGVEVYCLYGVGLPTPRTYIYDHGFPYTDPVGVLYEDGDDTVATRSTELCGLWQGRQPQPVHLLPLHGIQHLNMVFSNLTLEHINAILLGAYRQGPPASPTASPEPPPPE
Assay: LCAT activation assay
Format: biochemical
Settings: LCAT activation as compared with native human ApoA-I (= 100%), equivalent masses
Procedure: The peptides synthesized as described in Section 6, supra, were analyzed in vitro for their ability to activate LCAT. In the LCAT assay, substrate vesicles (small unilamellar vesicles or “SUVs”) composed of egg phophatidylcholine (EPC) or 1-Palmitoyl-2-oleyl-phosphatidyl-choline (POPC) and radiolabelled cholesterol are preincubated with equivalent masses either of peptide or ApoA-I (isolated from human plasma). The reaction is initiated by addition of LCAT (purified from human plasma). Native ApoA-I, which was used as positive control, represents 100% activation activity. “Specific activity” (i.e., units of activity (LCAT activation)/unit of mass) of the peptides can be calculated as the concentration of peptide that achieves maximum LCAT activation. For example, a series of concentrations of the peptide (e.g., a limiting dilution) can be assayed to determine the “specific activity” for the peptide—the concentration which achieves maximal LCAT activation (i.e., percentage conversion of cholesterol to cholesterol ester) at a specific timepoint in the assay (e.g., 1 hr.). When plotting percentage conversion of cholesterol at, e.g., 1 hr., against the concentration of peptide used, the “specific activity” can be identified as the concentration of peptide that achieves a plateau on the plotted curve.
The vesicles used in the LCAT assay are SUVs composed of egg phosphatidylcholine (EPC) or 1-palmitoyl-2-oleyl-phosphatidylcholine (POPC) and cholesterol with a molar ratio of 20:1. To prepare a vesicle stock solution sufficient for 40 assays, 7.7 mg EPC (or 7.6 mg POPC; 10 μmol), 78 μg (0.2 μmol) 4-^14C-cholesterol, 116 μg cholesterol (0.3 μmol) are dissolved in 5 ml xylene and lyophilized. Thereafter 4 ml of assay buffer is added to the dry powder and sonicated under nitrogen atmosphere at 4° C. Sonication conditions: Branson 250 sonicator, 10 mm tip, 6×5 minutes; Assay buffer: 10 mM Tris, 0.14 M NaCl, 1 mM EDTA, pH 7.4). The sonicated mixture is centrifuged 6 times for 5 minutes each time at 14,000 rpm (16,000×g) to remove titanium particles. The resulting clear solution is used for the enzyme assay.
For the LCAT purification, dextran sulfate/Mg^2+ treatment of human plasma is used to obtain lipoprotein deficient serum (LPDS), which is sequentially chromatographed on Phenylsepharose, Affigelblue, ConcanavalinA sepharose and anti-ApoA-I affinity chromatography, as summarized for a representative purification in TABLE IX, below: […]

Compound | ACTIVITY (%) LCAT [%]
CC(C)C[C@H](NC(=O)[C@H](C)NC(=O)[C@H](CCC(=O)O)NC(=O)[C@H](CC(C)C)NC(=O)[C@H](CC(C)C)NC(=O)[C@H](CCC(=O)O)NC(=O)[C@H](CC(N)=O)NC(=O)[C@H](CC(C)C)NC(=O)[C@H](CC(C)C)NC(=O)[C@H](CCC(=O)O)NC(=O)[C@H](CCCNC(=N)N)NC(=O)[C@H](Cc1ccccc1)NC(=O)[C@H](CC(C)C)NC(=O)[C@H](CC(=O)O)NC(=O)[C@H](CC(C)C)NC(=O)[C@@H](NC(=O)C(C)(C)N)C(C)C)C(=O)N[C@@H](CCCCN)C(=O)N[C@@H](CCC(N)=O)C(=O)N[C@@H](CCCCN)C(=O)N[C@@H](CC(C)C)C(=O)N[C@@H](CCCCN)C(=O)O [compound 32, XVLDLFRELLNELLEALKQKLK] (H-[Aib]VLDLFRELLNELLEALKQKLK-OH) | 33
PVLDLFREGLNELLEALKQKLK [compound 20] | 57
PVLDLFDNLLDRLLDLLNKKLK [compound 173] | 15
PVLDLFRELLNEELEALKQKLK [compound 98] | 2
PVLDLFRELLNELLEAGKQKLK [compound 12] | 70
Ac-PALELFKDLLEEFRQRLK-NH2 [compound 213] | 42
CC(C)C[C@H](NC(=O)[C@H](C)NC(=O)[C@H](Cc1c[nH]c2ccccc12)NC(=O)[C@H](CC(C)C)NC(=O)C(C)(C)NC(=O)[C@H](CCC(=O)O)NC(=O)[C@H](CC(N)=O)NC(=O)[C@H](CC(C)C)NC(=O)[C@H](CCCCN)NC(=O)[C@H](CCC(=O)O)NC(=O)[C@H](CCCNC(=N)N)NC(=O)[C@H](Cc1ccccc1)NC(=O)[C@H](CCC(=O)O)NC(=O)[C@H](CC(=O)O)NC(=O)[C@H](CC(C)C)NC(=O)[C@@H](NC(=O)[C@@H]1CCCN1)C(C)C)C(=O)N[C@@H](CCCCN)C(=O)N[C@@H](CCC(N)=O)C(=O)N[C@@H](CCCCN)C(=O)N[C@@H](CC(C)C)C(=O)N[C@@H](CCCCN)C(=O)O [compound 89, PVLDEFREKLNEXLWALKQKLK] (H-PVLDEFREKLNE[Aib]LWALKQKLK-OH) | 6
CC(C)C[C@H](NC(=O)[C@H](CCCCN)NC(=O)[C@H](CCC(N)=O)NC(=O)[C@H](CCCCN)NC(=O)[C@H](CC(C)C)NC(=O)C(C)(C)NC(=O)[C@H](CCC(=O)O)NC(=O)[C@H](CC(C)C)NC(=O)[C@H](CCC(=O)O)NC(=O)[C@H](CCC(=O)O)NC(=O)[C@H](CC(N)=O)NC(=O)[C@H](CC(C)C)NC(=O)[C@H](CCCCN)NC(=O)[C@H](CCC(=O)O)NC(=O)[C@H](CCCNC(=N)N)NC(=O)[C@H](Cc1ccccc1)NC(=O)[C@H](CCC(=O)O)NC(=O)[C@H](CC(=O)O)NC(=O)[C@H](CC(C)C)NC(=O)[C@@H](NC(=O)[C@@H]1CCCN1)C(C)C)C(=O)N[C@@H](CCCCN)C(=O)O [compound 120, PVLDEFREKLNEELEXLKQKLK] (H-PVLDEFREKLNEELE[Aib]LKQKLK-OH) | 0
PVLDEFRELLNEELEALKQKLK [compound 103] | 1
CC(C)C[C@H](NC(=O)[C@H](C)NC(=O)[C@H](CCC(=O)O)NC(=O)[C@H](CC(C)C)NC(=O)[C@H](CC(C)C)NC(=O)[C@H](CCC(=O)O)NC(=O)[C@H](CC(N)=O)NC(=O)[C@H](CC(C)C)NC(=O)[C@H](CC(C)C)NC(=O)[C@H](CCC(=O)O)NC(=O)[C@H](CCCNC(=N)N)NC(=O)[C@H](Cc1ccccc1)NC(=O)[C@H](CC(C)C)NC(=O)[C@H](CC(=O)O)NC(=O)[C@H](CC(C)C)NC(=O)[C@@H](NC(=O)[C@H]1CCCN1)C(C)C)C(=O)N[C@@H](CCCCN)C(=O)N[C@@H](CCC(N)=O)C(=O)N[C@@H](CCCCN)C(=O)N[C@@H](CC(C)C)C(=O)N[C@@H](CCCCN)C(=O)O [compound 21] | 57
PVLELFENLLERLFDALQKKLK [peptide 147] | 76
PVLDLFENLLERLLDALQKKLK [compound 159] | 28
PVLDLFRELLNELLEALKQKKK [compound 56] | 18
PVLEFFENLLERLLDALQKKLK [compound 157] | 30
PVLELFENLGERLLDALQKKLK [peptide 151] | 55
CC(C)C[C@H](NC(=O)[C@H](C)NC(=O)[C@H](CC(=O)O)NC(=O)[C@H](CC(C)C)NC(=O)[C@H](CC(C)C)NC(=O)[C@H](CCCN)NC(=O)[C@H](CCC(=O)O)NC(=O)[C@H](CC(C)C)NC(=O)[C@H](CC(C)C)NC(=O)[C@H](CC(N)=O)NC(=O)[C@H](CCC(=O)O)NC(=O)[C@H](Cc1ccccc1)NC(=O)[C@H](CC(C)C)NC(=O)[C@H](CCC(=O)O)NC(=O)[C@H](CC(C)C)NC(=O)[C@@H](NC(=O)[C@@H]1CCCN1)C(C)C)C(=O)N[C@@H](CCC(N)=O)C(=O)N[C@@H](CCCN)C(=O)N[C@@H](CCCN)C(=O)N[C@@H](CC(C)C)C(=O)N[C@@H](CCCN)C(=O)O [compound 170, PVLELFENLLEOLLDALQOOLO] (H-PVLELFENLLE[Orn]LLDALQ[Orn][Orn]L[Orn]-OH) | 17
Ac-PVLDLFRELGEELKQKLK-NH2 [compound 227] | 0
GVLELFLNLLERLLDALQKKLK [compound 177] | 10
PVLELFENLLEKLLEALQKKLK [compound 182] | 7
PVLELFLNLLEKLLDALQKKLK [compound 166] | 22
PVLELFLNLLERLGDALQKKLK [compound 172] | 16
CC(C)C[C@H](NC(=O)CNC(=O)[C@H](CCC(=O)O)NC(=O)[C@H](CC(N)=O)NC(=O)[C@H](CC(C)C)NC(=O)[C@H](CC(C)C)NC(=O)[C@H](CCC(=O)O)NC(=O)[C@H](CCCNC(=N)N)NC(=O)[C@H](Cc1ccccc1)NC(=O)[C@H](CC(C)C)NC(=O)[C@H](CC(=O)O)NC(=O)[C@H](CC(C)C)NC(=O)[C@@H](NC(=O)[C@H]1CCCN1)C(C)C)C(=O)N[C@@H](CCC(=O)O)C(=O)N[C@@H](C)C(=O)N[C@@H](CC(C)C)C(=O)N[C@@H](CCCCN)C(=O)N[C@@H](CCC(N)=O)C(=O)N[C@@H](CCCCN)C(=O)N[C@@H](CC(C)C)C(=O)N[C@@H](CCCCN)C(=O)O [compound 19] (H-[dP]VLDLFRELLNEGLEALKQKLK-OH) | 58
LVLDLFRELLNELLEALKQKLK [compound 59] | 17
PVFELFENLLERLLDALQKKLK [peptide 152] | 50
CC(C)C[C@H](NC(=O)[C@H](C)NC(=O)[C@H](CCC(=O)O)NC(=O)[C@H](CC(C)C)NC(=O)[C@H](CC(C)C)NC(=O)[C@H](CCC(=O)O)NC(=O)[C@H](CC(N)=O)NC(=O)[C@H](CC(C)C)NC(=O)[C@H](CC(C)C)NC(=O)[C@H](CCC(=O)O)NC(=O)[C@H](CCCNC(=N)N)NC(=O)[C@H](Cc1ccccc1)NC(=O)[C@H](CC(C)C)NC(=O)[C@H](CC(=O)O)NC(=O)[C@H](CC(C)C)NC(=O)[C@@H](NC(=O)[C@H]1CCCN1)C(C)C)C(=O)N[C@@H](CCCCN)C(=O)N[C@@H](CCC(N)=O)C(=O)N[C@@H](CCCCN)C(=O)N[C@@H](CC(C)C)C(=O)N[C@@H](CCCCN)C(=O)N[C@@H](CCCCN)C(=O)O [compound 5] | 90
CC(C)C[C@H](NC(=O)[C@H](C)NC(=O)[C@H](CCC(=O)O)NC(=O)[C@H](CC(C)C)NC(=O)C(C)(C)NC(=O)[C@H](CCC(=O)O)NC(=O)[C@H](CC(N)=O)NC(=O)[C@H](CC(C)C)NC(=O)[C@H](CCCCN)NC(=O)[C@H](CCCCN)NC(=O)[C@H](CCCNC(=N)N)NC(=O)[C@H](Cc1ccccc1)NC(=O)[C@H](CCC(=O)O)NC(=O)[C@H](CC(=O)O)NC(=O)[C@H](CC(C)C)NC(=O)[C@@H](NC(=O)[C@@H]1CCCN1)C(C)C)C(=O)N[C@@H](CCCCN)C(=O)N[C@@H](CCC(N)=O)C(=O)N[C@@H](CCCCN)C(=O)N[C@@H](CC(C)C)C(=O)N[C@@H](CCCCN)C(=O)O [compound 69, PVLDEFRKKLNEXLEALKQKLK] (H-PVLDEFRKKLNE[Aib]LEALKQKLK-OH) | 13
PVLDLFRELLNELLEALQKKLK [peptide 24] | 53
